Results as given in patent publication EP4782431A1 (Suzhou Merna Therapeutics Co. Ltd, priority 2023, dated 2025).

How the values were obtained:
[1] = test system: kinase inhibitor-induced mouse model with hand-foot skin reaction; experiment: kinase inhibitor-induced mouse model with hand-foot skin reaction; format: in vivo, ICR mice
From the text: After adaptive feeding for 7 days, SPF-grade ICR mice (male, 5-6 weeks old, with a body weight of approximately 35 g) were randomly divided into groups, including a blank control group (6 mice), a sorafenib modeling group (6 mice), an osimertinib modeling group (6 mice), a sorafenib + compound of formula (I) group (6 mice), an osimertinib + compound of formula (I) group (6 mice), a sorafenib + nicotinamide group (6 mice), and an osimertinib + nicotinamide group (6 mice). The groups were respectively administered corresponding modeling drugs by oral gavage (sorafenib at 100 mg/kg and osimertinib at 10 mg/kg) once daily; and the blank control group was administered an equivalent volume of normal saline. After administration with the chemotherapeutic drugs for 2 weeks, the ointments containing the compound of formula (I) (at a compound content of 3%) used in Example 10 were respectively applied topically in the groups, or nicotinamide was orally administered (100 mg/kg) once daily continuously for 16 days.
Measurement of the degree of swelling of toes: The degree of swelling of hind limb toes of the mice was measured using a toe swelling tester (KW-7C, Nanjing Calvin Biotechnology Co., Ltd.) before administration with the modeling drugs, after administration with the modeling drugs for 2 weeks, and before sacrifice, respectively. Before measurement, ankle joints of hind feet of the mice were marked at same positions before administration, after administration for 2 weeks, and before sacrifice. During measurement, water was properly located at the same level as the marked positions, and numerical values were recorded after becoming stable.
Pathological staining of skin tissues: Skin tissue samples were selected from hind limb toes of the mice and placed in 4% paraformaldehyde for fixation at room temperature for 4 hours. Then, the tissues were taken out and rinsed with running water for several hours. The samples were subjected to dehydration treatment with 70%, 80%, and 90% ethanol solutions, followed by treatment with a mixed solution of equal amounts of absolute alcohol and xylene for 15 minutes, and then permeabilized twice with a xylene solution for 15 minutes each time until the samples became transparent. The samples were placed in a mixture of half xylene and half paraffin for soaking for 15 minutes, and then, paraffin I and paraffin II were added for wax penetration for one hour, respectively. After embedding with paraffin, the samples were sectioned, baked, dewaxed, and hydrated. Then, the hydrated sections were placed in a hematoxylin solution (ZSGB-BIO, article No. 23041001) for staining for 3 minutes, and a differentiation solution of hydrochloric acid in ethanol was added for differentiation for 15 seconds. After rinsing with water, a Scott bluing solution (Servicebio, article No. 20230801) was added for bluing for 15 seconds. After rinsing with running water, the sections were stained with an eosin solution (Solarbio, article No. 33535) for 3 minutes, rinsed with running water, dehydrated, permeabilized, sealed, and inspected under a microscope.
Immunohistochemical staining: After baking, dewaxing, and hydration, paraffin sections of skin tissues of hind limb toes of the mice were subjected to antigen retrieval using a 0.2 M citric acid buffer solution (containing 1.534 g of citric acid, 3.1 g of sodium citrate, and 100 mL of distilled water, pH 4.7). Endogenous […] was removed using 3% hydrogen peroxide (Shandong Annjet High-Tech Disinfection Technology Co., Ltd., article No. 20290902), and the sections were incubated at room temperature for 10 minutes and then fully rinsed with a PBS buffer solution (containing 8 g of NaCl, 0.2 g of KCl, 1.44 g of Na2HPO4, and 1 M HCl, pH 7.4). The sections were permeabilized with 0.5% Triton-X-100 (AmyJet Scientific, article No. A-CSH436-100 mL), respectively permeabilized with mouse anti-IL-1β and rabbit IL-8 for 10 minutes, and not permeabilized with rabbit anti-IL-6. […]

[2] = test system: rat models with a hand-foot skin reaction; experiment: rat models with a hand-foot skin reaction; format: in vivo, SD rats
Description: After adaptive feeding for one week, SD rats (with a body weight of approximately 200 g) were randomly divided into groups with balanced body weight, with 12 rats in each group. Modeling drugs (including sorafenib, erlotinib, afatinib, and osimertinib) were respectively dissolved in a solution containing 5% of DMSO, 45% of PEG400, and 50% of H2O, and the modeling drugs were diluted to required concentrations and then administered once daily by gavage at doses shown in Table 3. After administration by gavage for 1 hour, 0.05 g of ointments containing different mass proportions of test compounds were evenly applied to left paws of the rats, a blank matrix ointment was applied to right paws of the rats to serve as a self-control, and no ointment was applied to the rats in a blank control group. After drug application, four limbs were continuously immobilized for 2 hours, then wiped with clean water to remove the residual drugs, removed from immobilization, and restored to free movement. The modeling drugs, the blank matrix ointment, and the ointments containing the test compounds were all administered once daily. After continuous administration for 30 days, the rats were euthanized, and paw plantar skin tissues were collected, fixed in 10% neutral formalin, […]. The ointments for the test compounds were prepared by mixing the compounds, white beeswax, white petrolatum, and light liquid paraffin in specific ratios (weight ratios of 3 ointments were respectively 1:18:58:23, 3:18:57:22, and 10:20:40:30). The blank matrix ointment was prepared by mixing white beeswax, white petrolatum, and light liquid paraffin in a specific ratio (weight ratio of 18:60:22).
Tissue staining: After dewaxing and rehydration, the paw plantar skin tissue sections of the above rats were stained in a hematoxylin solution for several minutes, cleaned, and placed in 1% acid alcohol for soaking until the sections faded to light blue-red. After cleaning with running water for 5 minutes, the sections were stained with eosin for 2-3 minutes, cleaned to remove excess dyes, dehydrated, then permeabilized by adding xylene for several minutes, and sealed and fixed with a neutral resin. The stratum corneum was observed under an optical microscope, and the thickness of the epidermal stratum corneum was measured using Dmetrix software.
Immunohistochemical staining: After dewaxing and hydration, the paw plantar skin tissue sections of the above rats were incubated with 3% H2O2 at room temperature for 30 minutes and blocked with 10% goat serum for 30 minutes after antigen retrieval. A KRT1 antibody (Abcam, ab93652) and a Loricrin antibody (Abcam, ab183646) were added dropwise, the sections were incubated overnight at 4°C, and an HRP secondary antibody (ZSGB-BIO, PV-6001) and a DAB kit (ZSG-BIO, ZLI9017) were added for color development. The sections were re-stained with hematoxylin, cleaned, and sealed and fixed with a neutral resin, and the expression amounts of KRT1 and Loricrin were observed under an optical microscope.
An incidence rate calculation method involves a proportion of animals in each group meeting the above criteria for determining successful modeling, that is, incidence rate = (number of successfully modeled rats/total number of rats in the group)*100%. […]

[3] = modeling drug alone by gavage once daily 30 days (Sorafenib 100, Erlotinib 70, Afatinib 50, Osimertinib 60 mg/kg), no test compound

**Q.** `CNC(=O)c1cc(Oc2ccc(NC(=O)Nc3ccc(Cl)c(C(F)(F)F)c3)cc2)ccn1` [Sorafenib, sorafenib] was tested. Which “cytokine IL-1β in the skin tissues of the hind limb toes of the mice” value ([1]; modeling drug oral 14 days, vs normal control group, p<0.05) did it give?
**A.** Its value is “significantly increased”.

**Q.** What about the “swelling of the hind limb toes of the mice” value ([1]; modeling drug oral, 14 days: sorafenib 100 mg/kg, osimertinib 10 mg/kg) of the same compound?
**A.** The value was “significant swelling of the hind limb toes of the mice was caused”.

**Q.** And the “epidermal layer and the stratum corneum in the skin tissues of the hind limb toes” value ([1]; modeling drug oral, 14 days: sorafenib, osimertinib, vs normal control group)?
**A.** The value was “significantly thickened”.

**Q.** What about the “skin of the hind limb toes of the mice (appearance)” value ([1]; modeling for 14 days: sorafenib 100 mg/kg, osimertinib 10 mg/kg oral gavage once daily, vs normal control group) of the same compound?
**A.** Its value is “obvious erythema and rhagades”.

**Q.** What about the “successful modeling rates for the hand-foot skin reaction” value ([2]; SD rats, once daily by gavage: sorafenib 100, erlotinib 70, afatinib 50, osimertinib 60 mg/kg) of the same compound?
**A.** Its value is 75%.

**Q.** What about the “KRT1 and Loricrin in tissues” value ([2]; immunohistochemical staining, successfully modeled rats, modeling drug alone) of the same compound?
**A.** The value was “significantly increased”.

**Q.** What about the “Incidence rate Left paw” value [2, 3] of the same compound?
**A.** The value was 9/12 (75%).

**Q.** And the “Incidence rate Right paw” value [2, 3]?
**A.** The value was 9/12 (75%).

**Q.** And the “stratum corneum thickness of the paw plantar skin” value ([2]; successfully modeled rats, modeling drug alone, vs normal rats)?
**A.** Its value is “significantly higher than that of normal rats”.
